Measurements published in patent US9206191B2, “Indazoles for the treatment and prophylaxis of respiratory syncytial virus infection” (Hoffmann-La Roche Inc., priority 2012, dated 2015).

What follows are compounds tested on RSV Long strain (assay: Viral Cytopathic Effect (CPE) Assay). Details: human respiratory syncytial virus, 144 h, cell viability after 6 days, Cell Counting kit-8.
Type: cell-based
In the case of `CS(=O)(=O)CCCn1c(Cn2cc(S(C)(=O)=O)c3cc(F)ccc32)nc2cc(Cl)ccc21` [Example 1-3, 5-Chloro-2-{[5-fluoro-3-(methylsulfonyl)-1H-indol-1-yl]methyl}-1-[3-(methylsulfonyl)propyl]-1H-benzimidazole], the EC50 is reported as 197 nM.
With `CS(=O)(=O)c1nn(Cc2nc3cc(Cl)ccc3n2CCC2COC2)c2cnccc12` [Example 2-23, 1-({5-Chloro-1-[2-(oxetan-3-yl)ethyl]-1H-benzimidazol-2-yl}methyl)-3-(methylsulfonyl)-1H-pyrazolo[3,4-c]pyridine] the EC50 was 6 nM.
`C[C@@H](c1nc2cc(Cl)ccc2n1CCC(F)(F)F)n1nc(S(C)(=O)=O)c2ccncc21` [Example 15-2, 1-{(1S)-1-[5-Chloro-1-(3,3,3-trifluoropropyl)-1H-benzimidazol-2-yl]ethyl}-3-(methylsulfonyl)-1H-pyrazolo[3,4-c]pyridine] showed an EC50 of 68 nM.
With `CS(=O)(=O)CCCn1c(Cn2nc(S(C)(=O)=O)c3ccccc32)nc2cc(Cl)ccc21` [Example 1-8, 1-({5-Chloro-1-[3-(methylsulfonyl)propyl]-1H-benzimidazol-2-yl}methyl)-3-(methylsulfonyl)-1H-indazole] the EC50 was 16 nM.
Compound `CS(=O)(=O)CCCn1c(Cn2nc(S(C)(=O)=O)c3ccncc32)nc2cc(Cl)ccc21` [Example 1-11, 1-({5-Chloro-1-[3-(methylsulfonyl)propyl]-1H-benzimidazol-2-yl}methyl)-3-(methylsulfonyl)-1H-pyrazolo[3,4-c]pyridine] has an EC50 of 4.6 nM.
`CS(=O)(=O)c1nn(Cc2nc3cc(Cl)ccc3n2C2CCOCC2)c2cnccc12` [Example 2-7, 1-{[5-Chloro-1-(tetrahydro-2H-pyran-4-yl)-1H-benzimidazol-2-yl]methyl}-3-(methylsulfonyl)-1H-pyrazolo[3,4-c]pyridine] gave an EC50 of 7.72 nM.
For `[2H]C([2H])(O)CCn1c(Cn2nc(S(C)(=O)=O)c3ccncc32)nc2cc(Cl)ccc21` [Example 13, 3-(5-chloro-2-{[3-(methylsulfonyl)-1H-pyrazolo[3,4-c]pyridin-1-yl]methyl}-1H-benzimidazol-1-yl)(1,1-^2H2)propan-1-ol], the EC50 was 3 nM.
`CC1(CCn2c(Cn3nc(S(C)(=O)=O)c4ccncc43)nc3cc(Cl)ccc32)COC1` [Example 2-25, 1-({5-Chloro-1-[2-(3-methyloxetan-3-yl)ethyl]-1H-benzimidazol-2-yl}methyl)-3-(methylsulfonyl)-1H-pyrazolo[3,4-c]pyridine] showed an EC50 of 6.79 nM.
`CS(=O)(=O)c1nn(Cc2nc3cc(Cl)ccc3n2C2CCOC2)c2ccccc12` (stereo not drawn) [Example 2-8, 1-{[5-Chloro-1-(tetrahydrofuran-3-yl)-1H-benzimidazol-2-yl]methyl}-3-(methylsulfonyl)-1H-indazole] was tested, and the EC50 was 36.1 nM.
With `CS(=O)(=O)c1nn(Cc2nc3cc(Cl)ccc3n2C2CCOC2)c2cnccc12` (stereo not drawn) [Example 2-28, 1-{[5-Chloro-1-(tetrahydrofuran-3-yl)-1H-benzimidazol-2-yl]methyl}-3-(methylsulfonyl)-1H-pyrazolo[3,4-c]pyridine] the EC50 was 7.57 nM.
`CS(=O)(=O)c1nn(Cc2nc3cc(Cl)ccc3n2C2CCN(C(=O)CN)C2)c2cnccc12` (stereo not drawn) [Example 2-18, 2-Amino-1-[3-(5-chloro-2-{[3-(methylsulfonyl)-1H-pyrazolo[3,4-c]pyridin-1-yl]methyl}-1H-benzimidazol-1-yl)pyrrolidin-1-yl]ethanone] gave an EC50 of 36 nM.
With `CS(=O)(=O)c1nn(Cc2nc3cc(Cl)ccc3n2C2CCC(F)(F)C2)c2cnccc12` (stereo not drawn) [Example 2-10, 1-{[5-Chloro-1-(3,3-difluorocyclopentyl)-1H-benzimidazol-2-yl]methyl}-3-(methylsulfonyl)-1H-pyrazolo[3,4-c]pyridine] the EC50 was 14.3 nM.
`CC(=O)N1CC[C@@H](n2c(Cn3nc(S(C)(=O)=O)c4ccncc43)nc3cc(Cl)ccc32)C1` [Example 6-1, 1-[(3R)-3-(5-Chloro-2-{[3-(methylsulfonyl)-1H-pyrazolo[3,4-c]pyridin-1-yl]methyl}-1H-benzimidazol-1-yl)pyrrolidin-1-yl]ethanone] showed an EC50 of 7 nM.
Work on `CS(=O)(=O)c1nn(Cc2nc3cc(Cl)ccc3n2-c2ccc(F)nc2)c2c[n+]([O-])ccc12` [Example 3-3, 1-{[5-Chloro-1-(6-fluoropyridin-3-yl)-1H-benzimidazol-2-yl]methyl}-3-(methylsulfonyl)-1H-pyrazolo[3,4-c]pyridine 6-oxide] yielded an EC50 of 1540 nM.
`CS(=O)(=O)CCCn1c(Cn2cc(S(=O)(=O)C3CC3)c3ccccc32)nc2cc(Cl)ccc21` [Example 1-7, 5-Chloro-2-{[3-(cyclopropylsulfonyl)-1H-indol-1-yl]methyl}-1-[3-(methylsulfonyl)propyl]-1H-benzimidazole] showed an EC50 of 227 nM.
For `CS(=O)(=O)c1nn(Cc2nc3cc(Cl)ccc3n2[C@H]2CC[C@@](C)(O)CC2)c2cnccc12` [Example 2-37, cis-4-(5-chloro-2-{[3-(methylsulfonyl)-1H-pyrazolo[3,4-c]pyridin-1-yl]methyl}-1H-benzimidazol-1-yl)-1-methylcyclohexanol], the EC50 was 6 nM.
Compound `CS(=O)(=O)c1nn(Cc2nc3cc(Cl)ccc3n2CCC2(O)CC2)c2cnccc12` [Example 2-34, 1-[2-(5-Chloro-2-{[3-(methylsulfonyl)-1H-pyrazolo[3,4-c]pyridin-1-yl]methyl}-1H-benzimidazol-1-yl)ethyl]cyclopropanol] has an EC50 of 8.7 nM.
`CS(=O)(=O)c1nn(Cc2nc3cc(Cl)cc(F)c3n2CCC(F)(F)F)c2cnccc12` [Example 5-1, 1-{[5-Chloro-7-fluoro-1-(3,3,3-trifluoropropyl)-1H-benzimidazol-2-yl]methyl}-3-(methylsulfonyl)-1H-pyrazolo[3,4-c]pyridine] was tested, and the EC50 was 17 nM.
In the case of `CS(=O)(=O)c1nn(Cc2nc3cc(Cl)ccc3n2[C@H]2CC[C@H](O)C2)c2cnccc12` (relative stereo) [Example 2-36, trans-3-(5-chloro-2-{[3-(methylsulfonyl)-1H-pyrazolo[3,4-c]pyridin-1-yl]methyl}-1H-benzimidazol-1-yl)cyclopentanol], the EC50 is reported as 2 nM.
`CS(=O)(=O)c1nn(Cc2nc3cc(Cl)ccc3n2-c2ccc(F)nc2)c2ccccc12` [Example 3-1, 1-{[5-Chloro-1-(6-fluoropyridin-3-yl)-1H-benzimidazol-2-yl]methyl}-3-(methylsulfonyl)-1H-indazole] was tested, and the EC50 was 9.86 nM.
With `CC(C)(O)[C@H]1C[C@H](n2c(Cn3nc(S(C)(=O)=O)c4ccncc43)nc3cc(Cl)ccc32)C1` [Example 2-39, 2-[trans-3-(5-chloro-2-{[3-(methylsulfonyl)-1H-pyrazolo[3,4-c]pyridin-1-yl]methyl}-1H-benzimidazol-1-yl)cyclobutyl]propan-2-ol] the EC50 was 2 nM.
Compound `CCS(=O)(=O)c1cn(Cc2nc3cc(Cl)ccc3n2CCCS(C)(=O)=O)c2ccccc12` [Example 1-5, 5-Chloro-2-{[3-(ethylsulfonyl)-1H-indol-1-yl]methyl}-1-[3-(methylsulfonyl)propyl]-1H-benzimidazole] has an EC50 of 65 nM.
With `CS(=O)(=O)c1nn(Cc2nc3cc(Cl)ccc3n2C2CCC(O)C2)c2c[n+]([O-])ccc12` (stereo not drawn) [Example 2-12, 3-(5-Chloro-2-{[3-(methylsulfonyl)-6-oxido-1H-pyrazolo[3,4-c]pyridin-1-yl]methyl}-1H-benzimidazol-1-yl)cyclopentanol] the EC50 was 769 nM.
`CS(=O)(=O)c1nn(Cc2nc3cc(Cl)ccc3n2C2CCNC(=O)C2)c2cnccc12` (stereo not drawn) [Example 2-4, 4-(5-Chloro-2-{[3-(methylsulfonyl)-1H-pyrazolo[3,4-c]pyridin-1-yl]methyl}-1H-benzimidazol-1-yl)piperidin-2-one] showed an EC50 of 7.35 nM.
For `C[C@H](c1nc2cc(Cl)ccc2n1CCC(F)(F)F)n1nc(S(C)(=O)=O)c2ccncc21` [Example 15-1, 1-{(1R)-1-[5-chloro-1-(3,3,3-trifluoropropyl)-1H-benzimidazol-2-yl]ethyl}-3-(methylsulfonyl)-1H-pyrazolo[3,4-c]pyridine], the EC50 was 227 nM.
`CS(=O)(=O)c1nn(Cc2nc3cc(Cl)ccc3n2C2CNC2)c2cnccc12` [Example 2-14, 1-{[1-(Azetidin-3-yl)-5-chloro-1H-benzimidazol-2-yl]methyl}-3-(methylsulfonyl)-1H-pyrazolo[3,4-c]pyridine] gave an EC50 of 708 nM.
Compound `CC(O)(CCn1c(Cn2nc(S(C)(=O)=O)c3ccncc32)nc2cc(Cl)ccc21)C(F)(F)F` (stereo not drawn) [Example 14, 4-(5-chloro-2-{[3-(methylsulfonyl)-1H-pyrazolo[3,4-c]pyridin-1-yl]methyl}-1H-benzimidazol-1-yl)-1,1,1-trifluoro-2-methylbutan-2-ol] has an EC50 of 2.8 nM.
In the case of `CS(=O)(=O)c1nn(Cc2nc3cc(Cl)ccc3n2C2C[C@@H](O)[C@H](O)C2)c2cnccc12` [Example 2-45, trans-4-(5-chloro-2-{[3-(methylsulfonyl)-1H-pyrazolo[3,4-c]pyridin-1-yl]methyl}-1H-benzimidazol-1-yl)cyclopentane-1,2-diol], the EC50 is reported as 6.1 nM.
For `CS(=O)(=O)CCn1c(Cn2nc(S(C)(=O)=O)c3ccncc32)cc2cc(Cl)ccc21` [Example 9-1, 1-({5-Chloro-1-[2-(methylsulfonyl)ethyl]-1H-indol-2-yl}methyl)-3-(methylsulfonyl)-1H-pyrazolo[3,4-c]pyridine], the EC50 was 3.71 nM.
`CS(=O)(=O)c1nn(Cc2nc3cc(Cl)ccc3n2C2CCNCC2)c2ccccc12` [Example 2-15, 1-{[5-Chloro-1-(piperidin-4-yl)-1H-benzimidazol-2-yl]methyl}-3-(methylsulfonyl)-1H-indazole] showed an EC50 of 591 nM.
Compound `CCC(=O)N1CC[C@@H](n2c(Cn3nc(S(C)(=O)=O)c4ccccc43)nc3cc(Cl)ccc32)C1` [Example 6-3, 1-[(3R)-3-(5-Chloro-2-{[3-(methylsulfonyl)-1H-indazol-1-yl]methyl}-1H-benzimidazol-1-yl)pyrrolidin-1-yl]propan-1-one] has an EC50 of 6.07 nM.
With `CS(=O)(=O)c1nn(Cc2nc3cc(Cl)ccc3n2C2CNC3(COC3)C2)c2cnccc12` (stereo not drawn) [Example 8, 1-{[5-Chloro-1-(2-oxa-5-azaspiro[3.4]oct-7-yl)-1H-benzimidazol-2-yl]methyl}-3-(methanesulfonyl)-1H-pyrazolo[3,4-c]pyridine] the EC50 was 19.4 nM.
With `CS(=O)(=O)c1nn(Cc2nc3cc(Cl)ccc3n2CCCC(F)(F)F)c2ccccc12` [Example 4-1, 1-{[5-Chloro-1-(4,4,4-trifluorobutyl)-1H-benzimidazol-2-yl]methyl}-3-(methylsulfonyl)-1H-indazole] the EC50 was 14.6 nM.
